According to patent US11760733B2, “Small molecule regulators of mitochondrial fusion and methods of use thereof” (Washington University, priority 2017, dated 2023):
“Also recorded” adds a separate entry of the source.

Experiments:
Mfn2 null MEFs = assay: Mitochondrial elongation (aspect ratio) fusogenicity assay; format: cell-based, mouse; conditions: for Emax: Mus musculus, read-out: % long compare to B
From the text: A cultured murine embryonic fibroblast assay system was used in which mitochondrial elongation (an increase in aspect ratio) reflects enhanced mitochondrial fusion.
A pharmacophore model was generated based on the interactions of HR1 and HR2 domains in the calculated structural model of Mfn2 in the closed conformation. The key features included hydrophobic interactions involving Mfn2 HR1: Val372 and Met376, and aromatic interactions and hydrogen bonding involving Mfn2 HR1 His380. […] A library comprising ˜14 million commercially available compounds was prepared in silico and evaluated using PHASE to fit these criteria. Top ranked hits were clustered, and filtered based on pharmacological properties using Qikprop. The top 55 (see TABLE 4) commercially available small molecules conforming to the model were selected for functional screening and purchased in 1 mg aliquots. Each compound was dissolved to a stock concentration of 10 mM in DMSO and applied to Mfn2 null MEFs overnight at a final concentration of 1 mM. […] Images were acquired by confocal microscopy. Each compound was scored for fusogenicity (see e.g., FIG. 24A) and % cell death (see e.g., FIG. 24B).
Wild-type MEFs were prepared from E10.5 c57/bl6 mouse embryos. […] MEFs were subcultured in DMEM (4.5 g/L glucose) plus 10% fetal bovine serum, 1× nonessential amino acids, 2 mM L-glutamine, 100U/ml penicillin and 100 ug/ml streptomycin.
Cells were excited with 408 nm (Hoechst), […] (MitoTracker Green and Calcein AM, GFP), or 637 nm (TMRE, MitoTracker Orange, Ethidium homodimer-1, and AF594-Dextran) laser diodes. For mitochondrial elongation studies mitochondrial aspect ratio (long axis/short axis) was calculated using automated edge detection and Image J software. Mitochondrial depolarization was calculated as % of green mitochondria visualized on MitoTracker Green and TMRE merged images, expressed as green/(green+yellow mitochondria)×100.

[1] = Solubility of library compounds in DMSO stock; format: physicochemical; conditions: stock concentration of 10 mM in DMSO
Procedure: A pharmacophore model was generated based on the interactions of HR1 and HR2 domains in the calculated structural model of Mfn2 in the closed conformation. The key features included hydrophobic interactions involving Mfn2 HR1: Val372 and Met376, and aromatic interactions and hydrogen bonding involving Mfn2 HR1 His380. […] A library comprising ˜14 million commercially available compounds was prepared in silico and evaluated using PHASE to fit these criteria. Top ranked hits were clustered, and filtered based on pharmacological properties using Qikprop. The top 55 (see TABLE 4) commercially available small molecules conforming to the model were selected for functional screening and purchased in 1 mg aliquots. Each compound was dissolved to a stock concentration of 10 mM in DMSO and applied to Mfn2 null MEFs overnight at a final concentration of […]. Eleven of the library members were not soluble in DMSO at the required concentration. The 44 fully soluble compounds were screened in groups of 6 at a time for cytotoxicity (calcein AM/ethidium homodimer staining; ThermoFisher LIVE/DEAD Assay cat # L3224) and fusogenicity (increase in mitochondrial aspect ratio; MitoTracker Orange staining) compared to cells treated overnight with […] of the parent HR1 367-384 mitofusin agonist peptide (positive control) or vehicle (DMSO). Images were acquired by confocal microscopy. Each compound was scored for fusogenicity (see e.g., FIG. 24A) and % cell death (see e.g., FIG. 24B). Pharmacophore model fit generally correlated with actual fusogenic activity (Pearson correlation coefficient r=0.214; see e.g., FIG. 24A, inset; TABLE 4).

Row | SMILES | Emax (Mfn2 null MEFs) [%] | also measured
1 | CCn1c(SCC(=O)Nc2sc3c(c2C(N)=O)CCC3)nnc1-c1ccc(Cl)cc1 [1-A1, 2-(2-{[5-(4-chlorophenyl)-4-ethyl-4H-1,2,4-triazol-3-yl]sulfanyl}acetamido)-4H,5H,6H-cyclopenta[b]thiophene-3-carboxamide] | 11 | 
2 | NC(=O)c1c(NC(=O)CSc2nnc(-c3ccccc3F)n2C2CC2)sc2c1CCC2 [1-A2, 2-(2-{[4-cyclopropyl-5-(2-fluorophenyl)-4H-1,2,4-triazol-3-yl]sulfanyl}acetamido)-4H,5H,6H-cyclopenta[b]thiophene-3-carboxamide] | -23 | 
3 | CCn1c(SC(C)C(=O)Nc2sc3c(c2C(N)=O)CCC3)nnc1-c1ccoc1C (stereo not drawn) [1-A6, 2-(2-{[4-ethyl-5-(2-methylfuran-3-yl)-4H-1,2,4-triazol-3-yl]sulfanyl}propanamido)-4H,5H,6H-cyclopenta[b]thiophene-3-carboxamide] | -31 | 
4 | COCCn1c(SC(C)C(=O)Nc2sc3c(c2C(N)=O)CCC3)nnc1-c1ccncc1 (stereo not drawn) [1-B12, 2-(2-{[4-(2-methoxyethyl)-5-(pyridin-4-yl)-4H-1,2,4-triazol-3-yl]sulfanyl}propanamido)-4H,5H,6H-cyclopenta[b]thiophene-3-carboxamide] | -1 | 
5 | Cc1ccc(-n2c(C)nnc2SCC(=O)Nc2sc3c(c2C(N)=O)CCCC3)cc1 [1-D3, 2-(2-{[5-methyl-4-(4-methylphenyl)-4H-1,2,4-triazol-3-yl]sulfanyl}acetamido)-4,5,6,7-tetrahydro-1-benzothiophene-3-carboxamide] | 1 | 
6 | CC1CCc2c(sc(NC(=O)CSc3nnc(C4CC4)n3-c3ccccc3)c2C(N)=O)C1 (stereo not drawn) [1-D5, 2-{2-[(5-cyclopropyl-4-phenyl-4H-1,2,4-triazol-3-yl)sulfanyl]acetamido}-6-methyl-4,5,6,7-tetrahydro-1-benzothiophene-3-carboxamide] | 2 | 
7 | Cc1occc1-c1nnc(SCC(=O)Nc2sc3c(c2C(N)=O)CCC3)n1-c1ccccc1 [1-D10, 2-(2-{[5-(2-methylfuran-3-yl)-4-phenyl-4H-1,2,4-triazol-3-yl]sulfanyl}acetamido)-4H,5H,6H-cyclopenta[b]thiophene-3-carboxamide] | 17 | 
8 | Cc1ccccc1-n1c(SCC(=O)Nc2sc3c(c2C(N)=O)CCCC3)nnc1-c1cccnc1 [1-E12, 2-(2-{[4-(2-methylphenyl)-5-(pyridin-3-yl)-4H-1,2,4-triazol-3-yl]sulfanyl}acetamido)-4,5,6,7-tetrahydro-1-benzothiophene-3-carboxamide] | -3 | 
9 | NC(=O)c1c(NC(=O)CSc2nnc(-c3cccnc3)n2-c2ccccc2)sc2c1CCCC2 [1-G3, 2-(2-{[4-phenyl-5-(pyridin-3-yl)-4H-1,2,4-triazol-3-yl]sulfanyl}acetamido)-4,5,6,7-tetrahydro-1-benzothiophene-3-carboxamide] | 4 | 
10 | NC(=O)c1c(NC(=O)CSc2nnc3n2CCCCC3)sc2c1CCCC2 [1-G10, 2-(2-{5H,6H,7H,8H,9H-[1,2,4]triazolo[4,3-a]azepin-3-ylsulfanyl}acetamido)-4,5,6,7-tetrahydro-1-benzothiophene-3-carboxamide] | -3 | 
11 | Cc1ccccc1-n1c(SCC(=O)Nc2sc3c(c2C(N)=O)CCC3)nnc1-c1ccncc1 [1-H1, 2-(2-{[4-(2-methylphenyl)-5-(pyridin-4-yl)-4H-1,2,4-triazol-3-yl]sulfanyl}acetamido)-4H,5H,6H-cyclopenta[b]thiophene-3-carboxamide] | -3 | 
12 | Cn1c(SCC(=O)Nc2sc3c(c2C(N)=O)CCC3)nnc1-c1ccc(Cl)cc1 [1-H2, 2-(2-{[5-(4-chlorophenyl)-4-methyl-4H-1,2,4-triazol-3-yl]sulfanyl}acetamido)-4H,5H,6H-cyclopenta[b]thiophene-3-carboxamide] | 0 | 
13 | NC(=O)c1c(NC(=O)CSc2nnc(C3CC3)n2C2CC2)sc2c1CCCC2 [2-A2, 2-{2-[(dicyclopropyl-4H-1,2,4-triazol-3-yl)sulfanyl]acetamido}-4,5,6,7-tetrahydro-1-benzothiophene-3-carboxamide] | 4 | 
14 | CC(=O)NC12CC3CC(C1)CC(C(=O)NCCSCc1ccc(C)cc1)(C3)C2 [3-acetamido-N-(2-{[(4-methylphenyl)methyl]sulfanyl}ethyl)adamantane-1-carboxamide] |  | Solubility in DMSO [1]: Insoluble
15 | Cc1ccc(C(=O)C(C)Sc2nnc3c(=O)n(-c4ccccc4)ccn23)cc1C (stereo not drawn) [3-{[1-(3,4-dimethylphenyl)-1-oxopropan-2-yl]sulfanyl}-7-phenyl-7H,8H-[1,2,4]triazolo[4,3-a]pyrazin-8-one] |  | Solubility in DMSO [1]: Insoluble
16 | Cc1ccc(C(=O)C(C)Sc2nnc3c(=O)n(-c4ccc(Br)cc4)ccn23)cc1C (stereo not drawn) [7-(4-bromophenyl)-3-{[1-(3,4-dimethylphenyl)-1-oxopropan-2-yl]sulfanyl}-7H,8H-[1,2,4]triazolo[4,3-a]pyrazin-8-one] |  | Solubility in DMSO [1]: Insoluble
17 | COc1cc(Cl)c(C)cc1N1C(=O)[C@@H]2C[C@H]1CN2Cc1cccn1-c1ncccn1 [(1S,4S)-2-(4-chloro-2-methoxy-5-methylphenyl)-5-{[1-(pyrimidin-2-yl)-1H-pyrrol-2-yl]methyl}-2,5-diazabicyclo[2.2.1]heptan-3-one] |  | Solubility in DMSO [1]: Insoluble
18 | CC1CCCCC1NC(=O)NCCSCc1ccccc1 (stereo not drawn) [A10, 1-[2-(benzylsulfanyl)ethyl]-3-(2-methylcyclohexyl)urea] | 72 | 
19 | O=C(Nc1cc(CSCCOC(=O)C2C3CCCCC32)ccn1)C1C2CCCCC21 (stereo not drawn) [A12, 2-{[(2-{bicyclo[4.1.0]heptane-7-amido}pyridin-4-yl)methyl]sulfanyl}ethyl bicyclo[4.1.0]heptane-7-carboxylate] | 31 | 
20 | CC(c1cccc([N+](=O)[O-])c1)N(C)CC(=O)NCCSCc1ccccc1C#N (stereo not drawn) [B05, N-(2-{[(2-cyanophenyl)methyl]sulfanyl}ethyl)-2-{methyl[1-(3-nitrophenyl)ethyl]amino}acetamide] | 15 | 
21 | Cc1cccc(NC(=O)CSCC(=O)N(Cc2ccc(N(C)C)cc2)C(C)C)c1 [B12, N-{[4-(dimethylamino)phenyl]methyl}-2-({[(3-methyl-phenyl)carbamoyl]methyl}sulfanyl)-N-(propan-2-yl)acetamide] | 26 | 
22 | O=C1CC(SCCc2nc3ccccc3[nH]2)C(=O)N1c1cccc(F)c1 (stereo not drawn) [D9] |  | fusogenic activity (mitochondrial elongation), in words (Mfn2 null MEFs): no true fusogenic activity; also recorded: failed validation in the secondary screen
23 | Cc1ccc(CSCCNC(=O)C2CCN(c3ccc4nnc(C(F)(F)F)n4n3)CC2)cc1 [N-(2-{[(4-methylphenyl)methyl]sulfanyl}ethyl)-1-[3-(trifluoromethyl)-[1,2,4]triazolo[4,3-b]pyridazin-6-yl]piperidine-4-carboxamide] |  | Solubility in DMSO [1]: Insoluble
24 | CC(Sc1nc(C2CC2)nc2c1c(=O)[nH]c(=O)n2C1CC1)C(=O)NCC1CCCCC1 (stereo not drawn) [N-(cyclohexylmethyl)-2-({2,8-dicyclopropyl-5,7-dioxo-5H,6H,7H,8H-pyrimido[4,5-d][1,3]diazin-4-yl}sulfanyl)propanamide] |  | Solubility in DMSO [1]: Insoluble
25 | Cc1ccc(SC(C)C(=O)Nc2ccc(NS(=O)(=O)c3ccc4c(c3)OCCCO4)cc2)cc1 (stereo not drawn) [N-[4-(3,4-dihydro-2H-1,5-benzodioxepine-7-sulfonamido)phenyl]-2-[(4-methylphenyl)sulfanyl]propanamide] |  | Solubility in DMSO [1]: Insoluble
26 | CCc1nnc(SC(CC)C(=O)N(CC)c2cccc(C)c2)c2cc3occc3n12 (stereo not drawn) [N-ethyl-2-({12-ethyl-5-oxa-1,10,11-triazatricyclo[6.4.0.0^2,^6]dodeca-2(6),3,7,9,11-pentaen-9-yl}sulfanyl)-N-(3-methylphenyl)butanamide] |  | Solubility in DMSO [1]: Insoluble
27 | CC(c1cccc([N+](=O)[O-])c1)N(C)CC(=O)NCCSCc1ccccc1C#N (stereo not drawn) [drawing 250] |  | Fusogenicity Rank (Mfn2 null MEFs; rank by aspect ratio among 44 soluble compounds): 16
